Measurements taken from US7622506B2, “Naphthalenedione compounds for treating inflammation related disorders and microbial infection” (SunTen Phytotech Co., Ltd., priority 2006, dated 2009).
pIC50: −log10 of the molar value. Where two headings read alike, the source gives them in different places.

Legend:
[1] = tested on: methicillin-resistant Staphylococcus aureus (ATCC33591); assay: Growth inhibition of methicillin-resistant Staphylococcus aureus (ATCC33591); format: cell-based; conditions: Table 5; repeated with various concentrations
Source text: In this example, the inhibition by the aforementioned compounds or extracts on the growth of methicillin-resistant Staphylococcus aureus (ATCC33591) was studied by a method modified from those described in Modugno et al., Antimicrobial Agents and Chemotherapy, 1994, 38: 2362-2368, and Misiek et al., Antimicrobial Agents Chemotherapy, 1973, 3: 40-48.
The above experiments on Staphylococcus aureus and Propionibacterium acnes were repeated using various concentrations of the compounds.

5-Lipoxygenase = biological target: T1, 5-Lipoxygenase (Homo sapiens, UniProt P09917); assay: Inhibition of 5-Lipoxygenase activity; format: biochemical; conditions: for IC50: IC50 (μM)
T1 sequence (P09917 1-674): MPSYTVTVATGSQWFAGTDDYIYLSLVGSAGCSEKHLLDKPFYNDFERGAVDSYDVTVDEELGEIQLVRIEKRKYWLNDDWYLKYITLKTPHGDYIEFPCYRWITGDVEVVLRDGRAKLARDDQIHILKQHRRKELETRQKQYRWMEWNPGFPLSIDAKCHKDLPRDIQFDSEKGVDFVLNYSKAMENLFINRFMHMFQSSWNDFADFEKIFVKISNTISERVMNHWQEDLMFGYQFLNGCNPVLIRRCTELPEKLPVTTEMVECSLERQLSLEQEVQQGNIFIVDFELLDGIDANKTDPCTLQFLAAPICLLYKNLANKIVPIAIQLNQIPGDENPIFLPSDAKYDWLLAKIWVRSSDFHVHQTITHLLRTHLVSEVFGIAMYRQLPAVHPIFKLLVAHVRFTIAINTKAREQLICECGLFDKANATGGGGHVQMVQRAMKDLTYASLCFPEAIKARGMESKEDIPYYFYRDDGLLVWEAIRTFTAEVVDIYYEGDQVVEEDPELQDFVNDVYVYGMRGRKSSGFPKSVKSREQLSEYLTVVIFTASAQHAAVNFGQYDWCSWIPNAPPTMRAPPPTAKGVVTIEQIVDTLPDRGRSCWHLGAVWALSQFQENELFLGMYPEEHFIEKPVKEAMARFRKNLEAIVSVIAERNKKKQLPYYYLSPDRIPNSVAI
Source text: 5-Lipoxygenase has been known to be a key enzyme in the bio-synthesis of leukotrienes, important mediators in inflammatory and allergic processes. […] The experiment was repeated using various concentrations of the compounds.

[2] = Table 2A, concentration 10 μM, read-out: % Inhibition
[3] = Table 2A, read-out: 5-Lipoxygenase, IC50
[4] = Table 2B, read-out: 5-Lipoxygenase, IC50

Row | Molecule | Anti-microbial Activity, effective concentration range, MRSA (μM) [1] | inhibition at 10 µM (5-Lipoxygenase) | Anti-microbial Activity, effective concentration range, MRSA [1] | inhibition at 10 µM (5-Lipoxygenase; [2]) | pIC50 (5-Lipoxygenase; [3]) | other results
1 | CC(=O)O[C@H](CC=C(C)C)C1=CC(=O)c2c(O)ccc(O)c2C1=O [ASK, (R)-1-(5,8-dihydroxy-1,4-dioxo-1,4-dihydronaphthalen-2-yl)-4-methylpent-3-enyl acetate] | 0.9~3.0 μM | 99% | – | – | – | IC50 (5-Lipoxygenase; 5-Lipoxygenase, Table 2A): 1.46 µM
2 | CC(C)=CC[C@@H](OC(=O)C=C(C)C)C1=CC(=O)c2c(O)ccc(O)c2C1=O [BSK] | – | – | 2.8 µM | 99% | 5.92 | –
3 | Cc1cc(C2CCCCC2)n(O)c(=O)c1 [Ciclpirox Olamine, reference compound] | – | – | 37.3 µM | – | – | inhibition at 30 µM (5-Lipoxygenase; Table 2B, concentration 30 μM): 66%; pIC50 (5-Lipoxygenase; [4]): 4.77
4 | CC(C)=CCCC1=CC(=O)c2c(O)ccc(O)c2C1=O [DSK, 5,8-dihydroxy-2-(4-methylpent-3-enyl)naphthalene-1,4-dione] | 7.8~26.0 μM | 53% | – | – | – | inhibition at 10 µg/mL (5-Lipoxygenase): 64%; IC50 (5-Lipoxygenase; 5-Lipoxygenase, Table 2A): 7.01 µM; pIC50 (5-Lipoxygenase; 5-Lipoxygenase, IC50, Table 2B): 4.70
5 | CC(C)=CC[C@@H](OC(=O)C(C)C)C1=CC(=O)c2c(O)ccc(O)c2C1=O [ISK, (R)-1-(5,8-dihydroxy-1,4-dioxo-1,4-dihydronaphthalen-2-yl)-4-methylpent-3-enyl isobutyrate] | – | – | 7.7 µM | 98% | 5.81 | –
6 | CCC(C)C(=O)O[C@H](CC=C(C)C)C1=CC(=O)c2c(O)ccc(O)c2C1=O (some centres unmarked) [MBSK, 1-(5,8-dihydroxy-1,4-dioxo-1,4-dihydronaphthalen-2-yl)-4-methylpent-3-enyl 2-methylbutanoate] | – | – | 2.7 µM | 98% | 5.86 | –
7 | CC(C)=CC[C@@H](O)C1=CC(=O)c2c(O)ccc(O)c2C1=O [SK, (R)-5,8-dihydroxy-2-(1-hydroxy-4-methylpent-3-enyl)naphthalene-1,4-dione] | 10.4~34.7 μM | 101% | – | – | – | pIC50 (5-Lipoxygenase): 6.41; inhibition at 1 µM (5-Lipoxygenase): 70%; inhibition at 1 µg/mL (5-Lipoxygenase): 51%; pIC50 (5-Lipoxygenase; 5-Lipoxygenase, IC50, Table 2B): 5.53
8 | Gentamicin [reference compound] | – | – | 2.1 µM | – | – | –
9 | epigallocatechin-3 gallate [EGCG, reference compound] | – | – | – | – | – | % Inhibition (5-Lipoxygenase; Table 2B, concentration 100 μM): 58%; pIC50 (5-Lipoxygenase; [4]): 4.06
